# Measured values from US20020006915A1, “Use of COX-2 inhibitors to treat sepsis, complications thereof, and EP receptor modulation” (priority 2000, published 2002).
# “Also recorded” adds a separate entry of the source.
# Assays:
# [1] = tested on: IκB-α; assay: Western blot of cytosolic IκB-α in splenic macrophages; assay type: in vivo, BALB/c mice; conditions: NS-398 treatment after trauma, over 7 days
# Protocol: Cytoplasmic fractions were collected after splenic macrophages were stimulated (as described above) and then boiled in equal volumes of loading buffer (125 mM Tris-HCl, pH 6.8, 4% sodium dodecyl sulfate, 20% glycerol and 10% 2-mercaptoethanol) for 3 minutes and were then separated by electrophoresis on a tris-glycine gradient gel. The proteins were then transferred to nitrocellulose membranes (Xcell II Blot Module; Novex). The membranes were blocked with 10% non-fat dried milk in Tris-buffered saline (TBS), pH 7.6, containing 0.05% tween-20 (TTBS) for 1 hour and then incubated with a polyclonal rabbit anti-mouse antibody to IκB-α (Santa Cruz Laboratories) for 45 minutes. After washing twice in TTMS, the blots were incubated with a peroxidase-conjugated goat anti-rabbit IgG secondary antibody for 15 minutes. The blots were washed in TTBS for 5 minutes three times, then in TBS for 5 minutes, incubated in enhanced chemiluminescence reagents (ECL, Amersham Life Sciences, Buckingham, England) and exposed on radiographic film (Kodak, Rochester, N.Y.).
# [2] = tested on: plasma PGE2; assay: Plasma PGE2 of mice at 6 h after traumatic injury; assay type: in vivo, BALB/c mice; conditions: for PGE2 levels at 6 h: pooled serum n=6
# Protocol: Vehicle mice were injected with a 4% DMSO solution. To evaluate the efficacy of NS-398 on plasma PGE2 levels, mouse blood was collected at 6 hours after injury±treatment. […] At 6 hours after trauma, plasma PGE2 levels were increased from […] to 49,733 […]).
# [3] = tested on: EP2 receptor; assay: EP2 receptor expression in LPS stimulated human PBMC's via RT-PCR; assay type: cell-based; conditions: PBMC's after injury, co-incubation with NS-398
# Protocol: Serial dilutions were made to co-culture cells with a final concentration of […] NS-398 in a 0.1% DMSO. Control and trauma groups were co-cultured with 0.1% DMSO vehicle for comparisons with NS-398 treated groups.
smiles,measurement,setting,value
"CS(=O)(=O)Nc1ccc([N+](=O)[O-])cc1OC1CCCCC1 [NS-398, N-(2-cyclohexyloxy-4-nitrophenyl)methanesulfonamide]",cytosolic IκB,[1],an increase in cytosolic IκB
same,PGE2 levels at 6 h,"[2]; Control + NS-398, plasma","35,961 pg/ml"
same,PGE2 levels at 6 h,"[2]; Trauma + NS-398, plasma","29,902 pg/ml"
same,plasma PGE2 levels,"[2]; injured mice treated with NS-398 (TN), 6 hours after trauma",29900 pg/mL
same,EP2 receptor expression,[3],returns to control levels; also recorded: restored
